Measurements: patent publication US11753445B2, “Therapeutic peptides” (COHBAR, INC., priority 2016, dated 2023)
Peptide text beside a SMILES is read from it.

System: 3T3-L1 Adipocytes
Assay: Free fatty acid levels in cultured mouse 3T3-L1 adipocytes, isoproterenol stimulated (Example 2)
Type: cell-based
Details: test peptides 25 μM; isoproterenol 1 nM
Outline: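 3T3-L1 cells differentiated 12–17 days into adipocytes, then exposed to test peptides at 25 μM final for 18–20 h, then 1 h, then 3 h with isoproterenol (1 nM) at 37 °C. Free fatty acids in the medium measured colorimetrically at 540 nm, corrected for untreated background and expressed relative to isoproterenol-only cells.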

Compound | Free Fatty Acid Levels in 3T3-L1 Adipocytes Expressed as a Percent of Isoproterenol Control: Percent of Control Value [%]
CC[C@H](C)[C@@H]1NC(=O)[C@H](Cc2ccc(O)cc2)NC(=O)CNC(=O)[C@H](CCSC)NC(=O)[C@H](CCC(=O)O)NC(=O)[C@@H](NC(=O)[C@H](Cc2c[nH]c3ccccc23)NC(=O)[C@H](CCCNC(=N)N)NC(=O)[C@@H](N)CCSC)CCC(=O)NCCCC[C@@H](C(=O)N[C@@H](CCCNC(=N)N)C(=O)N[C@@H](CCCCN)C(=O)N[C@@H](CC(C)C)C(=O)N[C@@H](CCCNC(=N)N)C(=O)O)NC(=O)[C@H](Cc2ccc(O)cc2)NC(=O)[C@H](Cc2ccccc2)NC1=O [compound 223] (HELM PEPTIDE1{M.R.W.E.E.M.G.Y.I.F.Y.K.R.K.L.R}$PEPTIDE1,PEPTIDE1,4:R3-12:R3$$$V2.0) | 64.6
CC[C@H](C)[C@@H]1NC(=O)[C@H](Cc2ccc(O)cc2)NC(=O)CNC(=O)[C@H](CCSC)NC(=O)[C@@H](NC(=O)[C@H](CCC(N)=O)NC(=O)[C@H](Cc2c[nH]c3ccccc23)NC(=O)[C@H](CCCNC(=N)N)NC(=O)[C@@H](N)CCSC)CCC(=O)NCCCC[C@@H](C(=O)N[C@@H](CCCNC(=N)N)C(=O)N[C@@H](CCCCN)C(=O)N[C@@H](CC(C)C)C(=O)N[C@@H](CCCNC(=N)N)C(=O)O)NC(=O)[C@H](Cc2ccc(O)cc2)NC(=O)[C@H](Cc2ccccc2)NC1=O [compound 224] (HELM PEPTIDE1{M.R.W.Q.E.M.G.Y.I.F.Y.K.R.K.L.R}$PEPTIDE1,PEPTIDE1,5:R3-12:R3$$$V2.0) | 56.2
CC[C@H](C)[C@@H]1NC(=O)[C@H](Cc2ccc(O)cc2)NC(=O)CNC(=O)[C@@H](NC(=O)[C@H](CCC(=O)O)NC(=O)[C@H](CCC(N)=O)NC(=O)[C@H](Cc2c[nH]c3ccccc23)NC(=O)[C@H](CCCNC(=N)N)NC(=O)[C@H](CCSC)NC(C)=O)CSSC[C@@H](C(=O)N[C@@H](CCCNC(=N)N)C(=O)N[C@@H](CCCCN)C(=O)N[C@@H](CC(C)C)C(=O)N[C@@H](CCCNC(=N)N)C(N)=O)NC(=O)[C@H](Cc2ccc(O)cc2)NC(=O)[C@H](Cc2ccccc2)NC1=O [compound 225] (HELM PEPTIDE1{[ac].M.R.W.Q.E.C.G.Y.I.F.Y.C.R.K.L.R.[am]}$PEPTIDE1,PEPTIDE1,7:R3-13:R3$$$V2.0) | 97.0
CC[C@H](C)[C@@H]1NC(=O)[C@H](Cc2ccc(O)cc2)NC(=O)CNC(=O)[C@@H](NC(=O)[C@H](CCC(=O)O)NC(=O)[C@H](CCC(N)=O)NC(=O)[C@H](Cc2c[nH]c3ccccc23)NC(=O)[C@H](CCCNC(=N)N)NC(=O)[C@H](CCSC)NC(C)=O)CCC(=O)NCCCC[C@@H](C(=O)N[C@@H](CCCNC(=N)N)C(=O)N[C@@H](CCCCN)C(=O)N[C@@H](CC(C)C)C(=O)N[C@@H](CCCNC(=N)N)C(N)=O)NC(=O)[C@H](Cc2ccc(O)cc2)NC(=O)[C@H](Cc2ccccc2)NC1=O [compound 226] (HELM PEPTIDE1{[ac].M.R.W.Q.E.E.G.Y.I.F.Y.K.R.K.L.R.[am]}$PEPTIDE1,PEPTIDE1,7:R3-13:R3$$$V2.0) | 79.8
CC[C@H](C)[C@@H]1NC(=O)[C@H](Cc2ccc(O)cc2)NC(=O)CNC(=O)[C@H](CCSC)NC(=O)[C@@H](NC(=O)[C@H](CCC(N)=O)NC(=O)[C@H](Cc2c[nH]c3ccccc23)NC(=O)[C@H](CCCNC(=N)N)NC(=O)[C@H](CCSC)NC(C)=O)CCC(=O)NCCCC[C@@H](C(=O)N[C@@H](CC(C)C)C(=O)N[C@@H](CCCNC(=N)N)C(N)=O)NC(=O)[C@H](CCCNC(=N)N)NC(=O)[C@@H]2CCCN2C(=O)[C@H](Cc2ccc(O)cc2)NC(=O)[C@H](Cc2ccccc2)NC1=O [compound 227] (HELM PEPTIDE1{[ac].M.R.W.Q.E.M.G.Y.I.F.Y.P.R.K.L.R.[am]}$PEPTIDE1,PEPTIDE1,6:R3-15:R3$$$V2.0) | 24.5
CC[C@H](C)[C@@H]1NC(=O)[C@H](Cc2ccc(O)cc2)NC(=O)CNC(=O)[C@H](CCSC)NC(=O)[C@H](CCC(=O)O)NC(=O)[C@@H](NC(=O)[C@H](Cc2c[nH]c3ccccc23)NC(=O)[C@H](CCCNC(=N)N)NC(=O)[C@H](CCSC)NC(C)=O)CCC(=O)NCCCC[C@@H](C(=O)N[C@@H](CCCNC(=N)N)C(=O)N[C@@H](CCCCN)C(=O)N[C@@H](CC(C)C)C(=O)N[C@@H](CCCNC(=N)N)C(N)=O)NC(=O)[C@H](Cc2ccc(O)cc2)NC(=O)[C@H](Cc2ccccc2)NC1=O [compound 228] (HELM PEPTIDE1{[ac].M.R.W.E.E.M.G.Y.I.F.Y.K.R.K.L.R.[am]}$PEPTIDE1,PEPTIDE1,5:R3-13:R3$$$V2.0) | 69.9
CC[C@H](C)[C@H](NC(=O)[C@H](Cc1ccc(O)cc1)NC(=O)CNC(=O)[C@H](CCC(=O)O)NC(=O)[C@H](CCC(=O)O)NC(=O)[C@H](CCC(N)=O)NC(=O)[C@H](Cc1c[nH]c2ccccc12)NC(=O)[C@H](CCCNC(=N)N)NC(=O)[C@@H](C)N)C(=O)N[C@@H](Cc1ccccc1)C(=O)N[C@@H](Cc1ccc(O)cc1)C(=O)N1CCC[C@H]1C(=O)N[C@@H](CCCNC(=N)N)C(=O)N[C@@H](CCCCN)C(=O)N[C@@H](CC(C)C)C(=O)N[C@@H](C)C(=O)O [compound 230] (HELM PEPTIDE1{[dA].R.W.Q.E.E.G.Y.I.F.Y.P.R.K.L.A}$$$$V2.0) | 94.5
CC[C@H](C)[C@H](NC(=O)[C@H](Cc1ccc(O)cc1)NC(=O)CNC(=O)[C@H](CCC(=O)O)NC(=O)[C@H](CCC(=O)O)NC(=O)[C@H](CCC(N)=O)NC(=O)[C@H](Cc1c[nH]c2ccccc12)NC(=O)[C@H](CCCNC(=N)N)NC(=O)[C@@H](C)N)C(=O)N[C@@H](Cc1ccccc1)C(=O)N[C@@H](Cc1ccc(O)cc1)C(=O)N1CCC[C@H]1C(=O)N[C@@H](CCCNC(=N)N)C(=O)N[C@@H](CCCCN)C(=O)N[C@@H](CC(C)C)C(=O)N[C@H](C)C(=O)O [compound 231] (HELM PEPTIDE1{[dA].R.W.Q.E.E.G.Y.I.F.Y.P.R.K.L.[dA]}$$$$V2.0) | 61.6
CC[C@H](C)[C@H](NC(=O)[C@H](Cc1ccc(O)cc1)NC(=O)CNC(=O)[C@H](CCC(=O)O)NC(=O)[C@H](CCC(=O)O)NC(=O)[C@H](CCC(N)=O)NC(=O)[C@H](Cc1c[nH]c2ccccc12)NC(=O)[C@H](CCCNC(=N)N)NC(=O)[C@@H](C)N)C(=O)N[C@@H](Cc1ccccc1)C(=O)N[C@@H](Cc1ccc(O)cc1)C(=O)N1CCC[C@H]1C(=O)N[C@@H](CCCNC(=N)N)C(=O)O [compound 232] (HELM PEPTIDE1{[dA].R.W.Q.E.E.G.Y.I.F.Y.P.R}$$$$V2.0) | 46.5
CC[C@H](C)[C@H](NC(=O)[C@H](Cc1ccc(O)cc1)NC(=O)CNC(=O)[C@H](C)NC(=O)[C@H](CCC(=O)O)NC(=O)[C@H](CCC(N)=O)NC(=O)[C@H](Cc1c[nH]c2ccccc12)NC(=O)[C@H](CCCNC(=N)N)NC(=O)[C@@H](N)CCC(=O)O)C(=O)N[C@@H](Cc1ccccc1)C(=O)N[C@@H](Cc1ccc(O)cc1)C(=O)N1CCC[C@H]1C(=O)N[C@@H](CCCNC(=N)N)C(=O)N[C@@H](CCCCN)C(=O)N[C@@H](CC(C)C)C(=O)N[C@H](C)C(=O)O [compound 234] (HELM PEPTIDE1{E.R.W.Q.E.A.G.Y.I.F.Y.P.R.K.L.[dA]}$$$$V2.0) | 73.8
